± gives the standard deviation of the reports.
glass transition temperature [°C]	Structure (SMILES)
274.00	*c1ccc2c(c1)C(=O)N(c1c(C(C)C)cc(C(c3ccccc3)(c3cc(C(C)C)c(N4C(=O)c5ccc(C(*)(C(F)(F)F)C(F)(F)F)cc5C4=O)c(C(C)C)c3)C(F)(F)F)cc1C(C)C)C2=O (repeat unit)
180.00	*Nc1cc([N+](=O)[O-])c(NC(=O)CCCCCCC(*)=O)cc1/C=C/c1ccc(N(C)C)cc1 (repeat unit)
68.00	*Oc1ccc(CC(NC(=O)CCc2ccc(OC(=O)CCCC(*)=O)cc2)C(=O)OC(C)C)cc1 (repeat unit)
75.00	*CCN(*)C(=O)Cc1ccc(C(F)(F)F)cc1 (repeat unit)
46.00	*Oc1ccc(CC(NC(=O)CCc2ccc(OC(=O)CCCCCCC(*)=O)cc2)C(=O)OC(C)CC)cc1 (repeat unit)
62.00	*Oc1ccc(CC(NC(=O)CCc2ccc(OC(=O)CCCC(*)=O)cc2)C(=O)OCC(C)C)cc1 (repeat unit)
20.00	*CC(*)OC(=O)C(F)(F)C(F)(F)C(F)(F)C(F)(F)F (repeat unit)
154.00	*Oc1ccc(C(C)(C)c2ccc(C(C)(C)c3ccc(OC(*)=O)cc3)cc2)cc1 (repeat unit)
89.00	*CCCCCCCCNC(=O)C(OC)C(OC)C(=O)N* (repeat unit)
250.00	*C(=O)c1ccc(Oc2c(C)cc(-c3cc(C)c(Oc4ccc(C(=O)c5ccc6nc(*)ccc6c5)cc4)c(C)c3C)c(C)c2C)cc1 (repeat unit)
175.00	*Oc1ccc(C2(c3ccc(OC(*)=O)cc3)CCCCC2)cc1 (repeat unit)
240.00	*Oc1ccc(NC(=C(C#N)C#N)c2ccc(-c3ccc(-c4ccc(C(Nc5ccc(*)cc5)=C(C#N)C#N)cc4)cc3)cc2)cc1 (repeat unit)
28.70	*/C=C/c1cccc(/C=C/[Si](C)(C)c2cccc([Si](*)(C)C)c2)c1 (repeat unit)
219.00	*c1ccc(Oc2ccc(C(=O)c3cccc(C(=O)c4ccc(Oc5ccc(-c6nc7ccccc7n6-c6ccc(-n7c(*)nc8ccccc87)cc6)cc5)cc4)c3)cc2)cc1 (repeat unit)
163.00	*Oc1cc(C)cc(OC(=O)c2cccc(C(*)=O)c2)c1 (repeat unit)
22.50	*c1cc(-c2sc(-c3cc(CCCCCCCCCC)c(*)s3)cc2CCCCCCCCCC)c2cccccc1-2 (repeat unit)
-1.00	*CCCCCCCCCCCCC(c1ccc(O)cc1)C(*)c1ccc(O)cc1C (repeat unit)
417.00	*c1ccc(-n2c(=O)c3cc4c(=O)n(*)c(=O)c4cc3c2=O)cc1 (repeat unit)
304.00	*c1ccc(-c2nc3cc(Oc4ccc5nc(-c6ccccc6)c(*)nc5c4)ccc3nc2-c2ccccc2)cc1 (repeat unit)

glass transition temperature [°C]	Structure (SMILES)
162.00	*Oc1ccc(C(C)(C)c2ccc(C(C)(C)c3ccc(Oc4ccc(C(=O)Nc5ccc(Cc6ccc(NC(=O)c7ccc(*)cc7)cc6)cc5)cc4)cc3)cc2)cc1 (repeat unit)
-59.00	*CC(*)C(=O)OCCCCCCSCC#N (repeat unit)
254.00	*Nc1cc(NC(=O)c2ccc(-c3ccc(C(*)=O)cc3)cc2)cc(C(=O)OCCOc2ccc(/C=C/C(=O)c3ccccc3)cc2)c1 (repeat unit)
58.90	*CC(*)(C)C(=O)OCc1c(Cl)cccc1Cl (repeat unit)
247.00	*c1cccc(C(=O)Nc2cccc(S(=O)(=O)c3cccc(NC(=O)c4cccc(N5C(=O)c6ccc(-c7ccc8c(c7)C(=O)N(*)C8=O)cc6C5=O)c4)c3)c2)c1 (repeat unit)
200.00	*Oc1ccc(C2(c3ccc(OC(*)=O)c(Cl)c3)CC3CCC2C3)cc1Cl (repeat unit)
235.00	*c1ccc(Oc2ccc(Oc3ccc(-c4cnc5ccc(-c6ccc7nc(*)cnc7c6)cc5n4)cc3)cc2)cc1 (repeat unit)
249.00	*Nc1cccc(NC(=O)Cc2cc(C)c(CC(*)=O)cc2C)c1 (repeat unit)
210.00	*Oc1ccc(C2(c3ccc(OC(=O)c4ccc(C(*)=O)cc4)cc3)CCC(C(C)(C)C)CC2)cc1 (repeat unit)
55.00	*CCCCCCCCCCCCc1nc2ccc(-c3ccc4nc(*)oc4c3)cc2o1 (repeat unit)
71.00	*Oc1cccc(Oc2cccc(OC(*)=O)c2)c1 (repeat unit)
263.00	*c1cc(N2C(=O)c3ccc(Oc4ccc5c(c4)C(=O)N(*)C5=O)cc3C2=O)c(O)cc1O (repeat unit)
180.00	*Oc1ccc(C(C)(C)c2ccc(Oc3ccc(*)nn3)cc2)cc1 (repeat unit)
198.00	*Oc1ccc(S(=O)(=O)c2ccc(Oc3ccc(C(=O)c4cc(C(=O)c5ccc(*)cc5)cc(C(C)(C)C)c4)cc3)cc2)cc1 (repeat unit)
71.00 ± 10	*c1ccc2c(c1)C(CCCCCCCC)(CCCCCCCC)c1cc(*)ccc1-2 (repeat unit) [poly(9,9-dioctylfluorene)]
194.00	*c1ccc(Oc2cccc(Oc3ccc(N4C(=O)c5ccc(Oc6ccc(C(=O)c7ccc(Oc8ccc9c(c8)C(=O)N(*)C9=O)cc7)cc6)cc5C4=O)cc3)c2)cc1 (repeat unit)
137.50	*Oc1cccc(Oc2cccc(NC(=O)c3cccc(Oc4cccc(Oc5cccc(C(=O)Nc6cccc(*)c6)c5)c4)c3)c2)c1 (repeat unit)
219.00	*c1cc(C(=O)OCCCC)cc(N2C(=O)CC(C3Cc4ccccc4C4C(=O)N(*)C(=O)C43)C2=O)c1 (repeat unit)
63.00	*CC(*)c1ccccc1COCCc1ccccc1 (repeat unit)

glass transition temperature [°C]	Structure (SMILES)
117.00	*Oc1ccc(SC(=O)Sc2ccc(*)cc2)cc1 (repeat unit)
268.00	*c1cccc(-c2cc(C(=O)Nc3ccc(OC(=O)c4cc(OCCCCCCCCCCCC)c(OCCCCCCCCCCCC)c(OCCCCCCCCCCCC)c4)cc3)cc(-c3cccc(N4C(=O)c5ccc(S(=O)(=O)c6ccc7c(c6)C(=O)N(*)C7=O)cc5C4=O)c3)c2)c1 (repeat unit)
168.00	*Oc1ccc2ccc(Oc3ccc(C(=O)Nc4cccc(NC(=O)c5ccc(*)cc5)c4)cc3)cc2c1 (repeat unit)
298.00	*c1ccc2c(c1)C(=O)N(c1cccc(C(=O)Nc3ccc(Oc4ccc(NC(=O)c5cccc(N6C(=O)c7ccc(C(*)(C(F)(F)F)C(F)(F)F)cc7C6=O)c5)cc4)cc3)c1)C2=O (repeat unit)
229.00	*c1ccc(Oc2ccc(N3C(=O)c4ccc(Oc5ccc(-c6ccc(Oc7ccc8c(c7)C(=O)N(*)C8=O)cc6)cc5)cc4C3=O)cc2)cc1 (repeat unit)
205.00 ± 3	*c1cccc(Oc2cccc(Oc3cccc(N4C(=O)c5ccc(-c6ccc7c(c6)C(=O)N(*)C7=O)cc5C4=O)c3)c2)c1 (repeat unit)
55.00	*CCCCCCCOC(=O)NCCCCCCNC(=O)O* (repeat unit)
305.00	*c1ccc(Oc2ccc(-c3nc4ccc(Oc5ccc6nc(*)c(-c7ccccc7)c(-c7ccccc7)c6c5)cc4c(-c4ccccc4)c3-c3ccccc3)cc2)cc1 (repeat unit)
73.50	*CC(*)(CC(=O)Oc1ccc(OCCCCC)cc1)C(=O)Oc1ccc(OCCCCC)cc1 (repeat unit)
270.00	*Nc1ccc(Cc2ccc(NC(=O)c3cc(C(*)=O)cc(S(=O)(=O)c4ccccc4)c3)cc2)cc1 (repeat unit)
122.50	*Oc1ccc(C(c2ccc(OC3(F)C(*)(F)C(F)(F)C3(F)F)cc2)(C(F)(F)F)C(F)(F)F)cc1 (repeat unit)
268.00	*Nc1cccc(C#Cc2ccc(NC(=O)c3cccc(C(*)=O)c3)cc2)c1 (repeat unit)
164.00	*Oc1ccc(C(=O)c2ccccc2)c(-c2cc(Oc3ccc(C(c4ccc(*)cc4)(C(F)(F)F)C(F)(F)F)cc3)ccc2C(=O)c2ccccc2)c1 (repeat unit)
194.00	*c1ccc(*)c(C(=O)c2ccc(F)cc2)c1 (repeat unit)
165.00	*Oc1ccc(S(=O)c2ccc(Oc3ccc(C(C)(C)c4ccc(*)cc4)cc3)cc2)cc1 (repeat unit)
250.00	*c1ccc(Oc2ccc(C(=O)c3cccc(-c4cccc(C(=O)c5ccc(Oc6ccc(-c7nc(-c8cccc(-c9nc(*)c(-c%10ccccc%10)[nH]9)c8)[nH]c7-c7ccccc7)cc6)cc5)c4)c3)cc2)cc1 (repeat unit)
153.00	*CC(*)(Cl)C(=O)OCCOc1ccc(C(=O)Oc2ccc(OCCCC)cc2)cc1 (repeat unit)
90.00	*CCCCCCCCCCOc1ccc(N(c2ccccc2)c2ccc(-c3ccc(N(c4ccccc4)c4ccc(O*)cc4)cc3)cc2)cc1 (repeat unit)
41.00	*CC(*)C(=O)OCCCCCCOc1ccc(/C=N/c2ccc(OCCCCC)cc2)c(O)c1 (repeat unit)

Structure (SMILES)	glass transition temperature [°C]
*CC(*)C(=O)OCC1(CC)COCOC1 (repeat unit)	42.00
*CCN(*)C(=O)c1ccc(F)c(F)c1 (repeat unit)	101.00
*CC(*)OCCCC (repeat unit) [Poly(butyl vinyl ether)]	-52.08 ± 1.5
*CC(*)C1CCC(C)CC1 (repeat unit)	132.00
*CC/C(C)=C(/*)C (repeat unit)	4.00
*CC(*)(C#N)C(=O)OC (repeat unit)	147.50
*CCCCCCOC(=O)Nc1cccc(P(=O)(c2ccccc2)c2cccc(NC(=O)O*)c2)c1 (repeat unit)	30.00
*OP(=O)(Oc1ccc(C)cc1)Oc1c(Br)cc(C(c2cc(Br)c(*)c(Br)c2)(C(F)(F)F)C(F)(F)F)cc1Br (repeat unit)	146.00
*CC(*)C(=O)OCc1ccc(C#N)cc1 (repeat unit)	44.00

Source: the PolyMetriX glass transition set
